# Measurements from patent US20220401465A1, “USES OF NAD+ AND/OR NAD+ INHIBITORS AND/OR NAD+ AGONISTS AND COMBINATION PREPARATION THEREOF” (ShanghaiTech University, priority 2019, published 2022).
# Assays:
# T cells in PBMC [1] = experiment: CD69 expression on T cells after anti-CD3/CD28 activation of PBMC (flow cytometry); assay type: cell-based, human
# Method: (§1) Human peripheral blood mononuclear cells (PBMC) were diluted 1:1 with fresh blood and normal saline (Meilun Biological MA0083) and then added flat to the upper layer of an equal volume of Histopaque®-1077 (Sigma10771) separation solution. The cells were centrifuged slowly for 30 min at 500 g at room temperature. After centrifugation, the white membrane layer between the plasma and the separation solution was imbibed and washed with normal saline. After repeated washing, the cells were resuspended with 10% FBS (Thermofisher 10099141C) RPMI (Corning10-040-CV) medium for later use.
# (§2) The concentration of PBMC cells was adjusted to no more than 0.5 million/ml, and the final concentration of 1 μM FK866 (Selleck S2799), 100 μM NAD+ (Selleck S2518), or 1μM FK866, and 100 μM NAD+ were added respectively. The cells after drug addition were cultured in a cell incubator for 24 hours at 37° C., with 5% CO2.
# Highly adsorbed 96-well plates were coated with CD28 (Biolegend 102112), and CD3 (Thermofisher 14-0037-82) antibodies at the final concentration of 0 or 3 μg/ml, the PBMC cells treated with the above different treatments were added to the well plates, respectively. After 24 h stimulation, the cells were collected for CD69 staining. […] After washing with Staining buffer, the cells were resuspended with staining buffer containing DAPI and then detected on BD LSRFortessa. […]
# T cells in PBMC [2] = experiment: Intracellular tyrosine phosphorylation after anti-CD3/CD28 activation of PBMC (WB, 4G10 antibody); assay type: cell-based, human; details: 1 μM FK866 24 h, then CD3/CD28 antibody stimulation 5 min, versus solvent
# Method: as §1, §2
# Highly adsorbed 96-well plates were coated with CD28 (Biolegend 102112), and CD3 (Thermofisher 14-0037-82) antibodies at the final concentration of 0 or 3 μg/ml, the PBMC cells treated with the above different treatments were added to the well plates, respectively. […] WB testing: after cell collection, the cells were lysed to extract proteins, which were then electrophoretically transferred and detected with 4G10 antibody (Millipore16-103) for anti-Phosphotyrosine testing. […]
# [3] = system: K562-CD19-mCherry-luciferase cells; experiment: Subcutaneous K562-CD19-mCherry-luciferase solid tumor model in NSG mice, in vivo imaging and survival; details: NAM alone i.p. daily 100 μL at 1 g/ml in saline, versus saline, n=5
# Method: In cells with K562-CD19-mCherry, as described previously, luciferase was then overexpressed through the lentiviral system. […] Since subcutaneously injected K562 cells also overexpressed Luciferase, intracellular fluorescence can be excited after intraperitoneal injection of the substrate luciferin (PerkinElmer 122799) in mice, and tumor growth in mice can be collected by in vivo imaging. Before CAR-T cells were injected into the tail vein of mice, the fluorescence signal intensity of mouse tumor cells was detected as the starting point, and then the fluorescence intensity of mouse tumor cells was detected every 7 days. For detection, the mice were intraperitoneally injected with 150 μL of D-luciferin potassium salt at a concentration of 10 mg/ml, and 10 minutes later, the fluorescence of tumor cells was detected using IVIS® LuminaIII small animal in vivo imaging system. The stronger the fluorescence, the more tumor cells and the faster the tumor growth.
SMILES,"CD69 on the surface of T cells (T cells in PBMC [1]; PBMC, 1 μM FK866 24 h, then CD3/CD28 antibody stimulation 24 h, versus solvent)",T cell activation ability (T cells in PBMC [1]; concluded from CD69 and phosphorylation levels when NAD+ synthesis was inhibited),intracellular phosphorylation levels (tyrosine) (T cells in PBMC [2]),effect on the fluorescence intensity and tumor growth of tumor cells [3]
O=C(/C=C/c1cccnc1)NCCCCC1CCN(C(=O)c2ccccc2)CC1 [FK866],significantly reduced,significantly decreased,significantly reduced,–
"NC(=O)c1cccnc1 [Nicotinamide (NAM), Nicotinamide]",–,–,–,no significant effect
